The text below walks through data of patent publication US20220402917A1, “COMPOUND AS SMALL MOLECULE INHIBITOR PD-1/PD-L1 AND APPLICATION THEREOF” (MEDSHINE DISCOVERY INC., priority 2019, published 2022).

The structures appear in SMILES notation.

Series [1] has as its target T1, PD-L1 in MDA-MR-231 cells (Homo sapiens, UniProt Q9NZQ7).
T1 construct: endogenous in cells; host or cells: MDA-MB-231
The series is described as follows: Effect on expression level of PD-L1 in MDA-MR-231 cells (FACS). The series is classed as cell-based. The settings on record: 24 hours incubation, FACS detection of cell surface PD-L1. The procedure, abridged: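 MDA-MB-231 cells (1×10^5/well) were incubated 24 h at 37 °C with 5-fold serially diluted compounds. Cells were detached with 10 mM EDTA, then stained with anti-human PD-L1 and LIVE/DEAD dye (4 °C, 30 min) and fixed. Surface PD-L1 was measured by flow cytometry.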

Series [2] can be described thus: Pharmacokinetic test in C57BL/6 mice. The series is classed as in vivo. The following applies: mouse, plasma, male C57BL/6 mice. On the procedure: Experimental Example 4: Pharmacokinetic Test
Experimental purpose: To study the pharmacokinetics of compounds in C57BL/6 mice.
Experimental materials: C57BL/6 mice (male, 8 weeks old, body weight 25 g-30 g)
Experimental operation: The pharmacokinetic characteristics of rodents after intravenous (IV) and oral (PO) administration of compounds were tested in standard protocols. In the experiment, the candidate compounds were formulated into 1 mg/mL clear solutions, and administered to mice via a single intravenous injection and oral administration. The vehicle of intravenous and oral administration was 5% DMSO/5% polyethylene glycol 15-hydroxystearate (Solutol)/90% aqueous solution. Four male C57BL/6 mice were used in the experiment, wherein two mice were administered intravenously at a dose of 1 mg/kg, and the plasma samples were collected 0.0833, 0.25, 0.5, 1, 2, 4, 6, 8 and 24 h after administration, the other two mice were given oral gavage at a dose of 10 mg/kg, and the plasma samples were collected 0.25, 0.5, 1, 2, 4, 6, 8, and 24 h after administration. Whole blood samples within 24 hours were collected, centrifuged at 3000 g for 15 minutes, and the supernatant was separated to obtain plasma samples. Acetonitrile solution containing internal standard was added thereto to precipitate proteins, the mixture was thoroughly mixed and centrifuged to obtain the supernatant for injection. The plasma concentration was quantified by LC-MS/MS analysis method, and the pharmacokinetic parameters were calculated, such as peak concentration (Cmax), clearance (CL), half-life (T1/2), […] (Vdss), area under the drug-time curve (AUC0-last), bioavailability (F) and so on.

T1 sequence (Q9NZQ7 19-290): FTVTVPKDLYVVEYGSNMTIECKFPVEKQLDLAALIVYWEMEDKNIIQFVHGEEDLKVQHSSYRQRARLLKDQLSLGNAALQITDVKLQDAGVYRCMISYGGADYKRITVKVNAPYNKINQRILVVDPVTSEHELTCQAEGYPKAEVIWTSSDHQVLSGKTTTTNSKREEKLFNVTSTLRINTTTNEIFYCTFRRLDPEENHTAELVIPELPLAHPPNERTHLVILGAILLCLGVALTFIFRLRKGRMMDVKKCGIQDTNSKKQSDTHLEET

In turn, `COc1nc(-c2cccc(-c3cccc(NC(=O)c4cc(C)c5c(n4)CN(CCO)CC5)c3Cl)c2Cl)cnc1CN1CC(O)C1` [Compound 21] gave an IC50 in series [1] of 5.73 nM. The bioavailability in series [2] (PO 10 mg/kg vs IV 1 mg/kg, read-out: Bioavailability F) was 34.9%. Besides, the Cmax in series [2] (IV 1 mg/kg, PO 10 mg/kg (route not given for Cmax), read-out: Peak concentration Cmax) was 117 nM. The clearance in series [2] (IV 1 mg/kg, read-out: Clearance CL) stood at 98.4 mL/min/kg. In addition, the half-life in series [2] (IV 1 mg/kg, read-out: Half-life T1/2 (IV) (converted)) was 11.6 h. In addition, the Vd in series [2] (IV 1 mg/kg, read-out: Tissue distribution Vdss) amounted to 65.6 L/kg. Besides, the AUC(0-t) in series [2] (PO 10 mg/kg, read-out: Area under the drug-time curve AUC0-last PO) was 0.796 µM·h.

In general, IC50 refers to the point on the concentration scale where inhibition reaches its midpoint. The term bioavailability denotes the share of a dose that reaches the circulation, judged against a reference dose that is usually intravenous. The term clearance denotes a measure of how efficiently the substance is removed, as volume per time.
